Assay results taken from patent US20220062340A1, “IMMUNOTHERAPEUTIC METHODS AND COMPOSITIONS” (KING'S COLLEGE LONDON, priority 2018, published 2022).
One block for each molecule: values may come before it.

Tests used:
MAdCAM-1 = experiment: In-vitro trafficking assay, MAdCAM-1 coated Ibidi flow chamber; format: cell-based, human; conditions: cells treated with monoclonal antibody to integrin α4β7, FIG. 4
Protocol: Ibidi (Martinsreid, Germany) μ-Slides VI″ were coated with recombinant human MAdCAM-1 (R&D Systems, Minneapolis, Minn.), at a concentration of 10μg/ml and incubated overnight. Cells from two CD patients that had previously undergone ex vivo expansion under two parallel conditions (Rapa and Rapa+RAR568) and had been frozen in liquid nitrogen were defrosted and rested overnight. Rested cells were then activated with rhCCL25 (R&D systems) and passed through the coated Ibidi flow chamber at a rate of 1 dyne/cm^2. The total number of cells, as well as those rolling, adherent and crawling was quantified from six randomly selected fields of view per treatment.
In order to assess the physiological relevance of the induction of α4β7 expression by RAR568, treated and untreated Tregs from CD patients were passed through a MAdCAM-1 coated flow chamber (FIG. 10). The total number of cells adherent to the chamber, as well as their stages of rolling, adhesion and crawling, were compared to cells that were expanded under standard conditions.

[1] = tested on: integrin α4β7 on Treg surface; experiment: Induction of integrin α4β7 on bulk Treg surface by RARα agonists (FIG. 6); format: cell-based; conditions: bulk CD4+CD25+CD127− Tregs, 12 days stimulation, reducing agonist concentrations
Protocol: Bulk Tregs (CD4+CD25+CD127−) Tregs (50,000 per well) were expanded in vitro with reducing concentrations of the agonists. Culture conditions: 2 aCD3/aCD28 beads/cell, 1000IU/mL IL-2, 0.1 nM Rapamycin+Agonist in X-vivo 15. Following 12 days stimulation, cells were stained for CD4, CD25, CD127, FOXP3, Integrin a4, Integrin b7, CD15s, CD161 and acquired on a BD symphony flow cytometer. Data was analysed in Flowjo and Prism.

integrin α4β7 on Tregs = experiment: α4β7 expression on ex vivo expanded CD45RA+ Tregs from CD patients (flow cytometry); format: cell-based, human; conditions: CD4+CD25hiCD127loCD45RA+ Tregs cultured with rapamycin and high dose IL-2 plus the agonist; mean ± SD
Protocol: “Complete X-VIVO-15” (Lonza, Walkersville, MD) was used for ex vivo Treg expansion, Treg cytokine challenge experiments and Treg suppression assays. This was supplemented with 100 nM or 10 nM Rapamycin and all-trans retinoic acid (ATRA) 2 μM or 1 nM, or Rapamycin and RAR568 1 nM.
(§1) FACS-sorted Treg populations were plated at 1×10^6 or 0.5×10^6 in X-VIVO-15 medium and activated with anti-CD3/anti-CD28 coated beads (Dynabeads®, Invitrogen, Paisley, UK) at 1:1 bead: cell ratio. Rapamycin was added at day 0 of culture at a final concentration of 100 nM/L +/−ATRA 1 nM/L or RAR568 1 nM/L. Next, 1,000 IU/ml recombinant human IL-2 (rhlL-2) (Proleukin®, Novartis, Camberley, UK) was added at day 5 of culture. Cells were re-stimulated every 10-12 days and expanded for a total of 24-30 days. The phenotype and suppressive ability were assessed at the end of the culture period.
Flow cytometry panels have been designed to assess the subtypes of regulatory T cells in patients with CD as well as their expression of gut homing molecules. Gating was performed based on natural populations when assessing for CD4^+CD25^highCD127low populations, as well as for CD45RA^+ Treg populations. Additionally, to minimize bias in the assessment of expression of gut homing markers and transcription factors, a fluorochrome minus one (FMO) panel was added for each marker of interest in each experiment that was performed. […]

integrin β7 on Tregs = experiment: Dose response of integrin β7 induction on expanded Tregs; format: cell-based; conditions: Homo sapiens; Tregs in in vitro culture, FIG. 2c; read-out: EC50 to induce the expression of integrin β7
Protocol: as §1
(§2) Flow cytometry panels have been designed to assess the subtypes of regulatory T cells in patients with CD as well as their expression of gut homing molecules. Gating was performed based on natural populations when assessing for CD4^+CD25^highCD127low populations, as well as for CD45RA^+ Treg populations. Additionally, to minimize bias in the assessment of expression of gut homing markers and transcription factors, a fluorochrome minus one (FMO) panel was added for each marker of interest in each experiment that was performed.

FOXP3 in Tregs = experiment: FOXP3 expression of ex vivo expanded Tregs; format: cell-based, human; conditions: Tregs expanded in the presence of the agonist
Protocol: as §1, §2

Effector T cells (Teff) = experiment: Treg suppression assay (proliferation of CFSE-labelled Teff); format: cell-based, human; conditions: lowest (8:1) Teff:Treg titration, FIG. 2e
Protocol: Effector T cells (Teff) were labelled with carboxyfluorescein succinimidyl ester (CFSE, Invitrogen) according to standard protocols. Cells were washed with phosphate buffered saline (PBS) to remove excess protein. Cells were then incubated with a 1 μM/L CFSE solution in the dark at room temperature for 4 minutes. The reaction was then quenched with 9 ml of complete medium.
Teff were activated with anti-CD3/anti-CD28 micro beads at a bead: Teff ratio of 0.02:1. 1×10^5 Teff were then cultured either alone or with Tregs in serial dilutions. The ratios of Teff: Treg were 1:1, 2:1, 4:1, and 8:1. This was done in X-VIVO-15 and proliferation rates were assessed by flow cytometry after 5 days of incubation.
Percentage suppression (S) of proliferation was calculated using the following formula:
Where c=percentage of proliferating precursors in the presence of Tregs and d=percentage of proliferating precursors in the absence of Tregs.

Ex vivo expanded Tregs = experiment: IL-17 and IFNγ production under pro-inflammatory cytokine challenge (ELISA); format: cell-based, human; conditions: Tregs expanded ex vivo in the presence of the agonist, FIG. 2f
Protocol: Cytokine concentrations were measured using the Ready-SET-Go sandwich ELISA kits from eBioscience.
Ex vivo expanded Tregs were activated with CD3/CD28 beads at a 1:20 ratio and cultured at 10^6cells/m1 in X-VIVO for 5 days at 37° C./5% CO2, supplemented with the following cytokine cocktail: A) IL-2 (10 IU/mL, Proleukin); (B) IL-2, IL-1 (10 ng/mL), IL-6 (4 ng/mL) and transforming growth factor-β (TGF-β (5 ng/mL), IL-21 (25 ng/mL), IL-23 (25 ng/mL) (all R&D Systems). Supernatant IL-17 and interferon gamma (IFNγ) concentrations were measured by ELISA.

Tregs from CD patients = experiment: Gene array of expanded Tregs from CD patients; format: cell-based, human
Protocol: Gene array analyses were carried out using Partek® software with a 1-way ANOVA to assess for differential gene expression.
1) RNA extraction was performed using Qiagen RNEasy mini/micro kits as per manufacturer's instructions. The samples were checked for RNA quality using the Agilent 2100 Bioanalyzer and quantified using the Nanodrop (ND-1000 Spectrophotometer). Samples which passed QC (RIN>8) were chosen such that input amount of each sample was 3 ng.
2) SPIA cDNA was generated using the “Ovation Pico WTA System V2” kit from Nugen, following the manufacturer's instructions.
3) The SPIA cDNA was subjected to a QC check to assess quality (Agilent 2100 Bioanalyzer) and quantity (Nanodrop ND-1000 Spectrophotometer) for the next stage.
4) The SPIA cDNA was fragmented and Biotin-labelled using the “Encore Biotin Module” from Nugen according to the manufacturer's instructions and passed through QC checks to assess fragmentation size (Agilent 2100 Bioanalyzer).
6) Hybridization cocktails were prepared of the fragmented labelled-cDNA according to Nugen's recommendations and hybridized at 45° C. overnight in an oven.
7) The arrays were washed and stained using wash protocol FS450_0002 (Affymetrix protocol recommended for Human Gene 2.0 Arrays on the GeneChip Fluidics station 450.
8) The arrays were scanned using the Affymetrix GeneChip Scanner.
Gene expression analyses were performed on Tregs from CD patients expanded in the presence of Rapa+ATRA, Rapa+RAR568 or rapamycin only (n=3 in each group). […] CD161 has previously been described as a marker of T helper (Th) 17-like Tregs^32. This was not observed in the RAR568-treated group. […] IL-18 Receptor 1 and STAT4 are responsible for Th1 lineage commitment and IFNγ production, both have been independently identified as IBD disease related polymorphisms on GWAS^33-36. CD38 has been identified as a marker associated with mature T cells, signaling reduced proliferation, but an increased ability to produce pro-inflammatory cytokines such as IFNγ^37. Ligation of GPR174 negatively affects Treg accumulation and function^38. No clear difference in transcripts for canonical pathways were identified when ATRA treated cells were compared with RAR568 treated cells.
To assess for off target RARγ effects, we compared the gene expression profiles of RAR568 and ATRA treated cells to a published dataset of RARγ target genes^39. […] Given the efficacy at inducing α4β7 and lack of off target effects, RAR568 fulfilled the target product profile for an agent that could be used for ex vivo Treg expansion for cell-based therapy purposes. Therefore, we probed this effect of RAR568 on Tregs from CD patients in functional in vitro and in vivo trafficking assays.

Molecule: Vedolizumab: monoclonal antibody to integrin α4β7
cell migration of RAR568-treated Tregs in MAdCAM-1 coated flow chamber (MAdCAM-1): All stages of cell migration were blocked

Molecule: CC1(C)CCC(C)(C)c2cc(NC(=O)c3ccc(C(=O)O)cc3)ccc21 [AM80, tamibarotene]
induction of integrin α4β7 on Treg surface [1]: comparable effects

EC50 (integrin β7 on Tregs): 1.5 nM
RARγ target genes upregulated (Tregs from CD patients; off target RARγ effects, compared to published dataset, FIG. 3b): Eleven
Molecule: CC1=C(/C=C/C(C)=C/C=C/C(C)=C/C(=O)O)C(C)(C)CCC1 [ATRA, all-trans retinoic acid, reference compound]
α4β7 expression of expanded Tregs (integrin α4β7 on Tregs): 74.21±25.89
FOXP3 expression of expanded Tregs (FOXP3 in Tregs; mean ± SD): 86.15±19.88%
FOXP3 expression, range (FOXP3 in Tregs; range): 40.2-99.7
Suppressive ability of expanded Tregs (Effector T cells (Teff)): became less suppressive at the lowest titration
IFNγ production following pro-inflammatory cytokine challenge (Ex vivo expanded Tregs): did not produce
IL-17 production following pro-inflammatory cytokine challenge (Ex vivo expanded Tregs): did not produce
transcripts for CD161 (Tregs from CD patients; compared to rapamycin only, n=3): significant increase
increase in the expression of STAT4, IL18R1, CD38 and GPR174 (Tregs from CD patients; compared to rapamycin only, p<0.05, FIG. 3a): > 2 fold

Molecule: CC1(C)CCC(C)(C)c2cc(C(=O)Nc3ccc(C(=O)O)cc3)ccc21 [AM580]
induction of integrin α4β7 on Treg surface [1]: comparable effects
